Tested on: wheat
Test: Field experiment 2, Zn impregnation on urea, wheat 2018 (Example 5)
Type: in vivo, wheat (SY 120)
Design: WG (weight of grains): unit not given here

NC(N)=O [Urea 200]
Yield (wheat grain yield, Pergamino 2018): 5136.4 kg ha^−1 | Dry M Z25 (initial dry matter) (wheat, Z25, Pergamino 2018): 2450.0 | Coverage and Intercep. Z65 (wheat, Z65, Pergamino 2018): 91.7 | NDVI GS 65 (Green seeker) (wheat, Z65, Pergamino 2018): 0.40 | Plant height (wheat, Z65, Pergamino 2018): 75.0 cm | Spad Z65 (green intensity) (wheat, Z65, Pergamino 2018): 40.8 Spad units | Vigor Z65 (1-5) (wheat, Z65, index 1 minimum 5 maximum): 3.9 | Plants m^−2 (number of emerged plants) (wheat, Zn impregnation on Urea, Pergamino 2018): 239.0 m^−2 | NG m^−2 (number of grains) (wheat, harvest, Pergamino 2018): 16410.1 m^−2 | WG (weight of grains) (wheat, harvest, Pergamino 2018): 31.3
